Measurements reported in ChEMBL document CHEMBL4665809, “Synthesis and biofilm inhibition studies of 2-(2-amino-6-arylpyrimidin-4-yl)quinazolin-4(3H)-ones” (Bioorg Med Chem Lett, 2020).

Columns and labels:
[1] = tested on: Staphylococcus aureus; test: Inhibition of biofilm formation in methicillin-resistant Staphylococcus aureus ATCC 43300 incubated for 24 hrs by crystal violet staining based microtiter plate method; assay type: functional, organism-based; settings: ATCC 43300, 24 h
[2] = tested on: CCD-18Co; test: Cytotoxicity against human CCD-18Co cells assessed as reduction in cell viability at 50 uM measured after 1 days by MTT assay relative to control; assay type: cell-based; settings: 24 h, time 1 day
[3] = tested on: CCD-18Co; test: Cytotoxicity against human CCD-18Co cells assessed as reduction in cell viability at 12.5 uM measured after 1 days by MTT assay relative to control; assay type: cell-based; settings: 24 h, time 1 day
[4] = tested on: Acinetobacter baumannii; test: Inhibition of biofilm formation in Acinetobacter baumannii at 100 uM incubated for 24 hrs by crystal violet staining based microtiter plate method; assay type: functional
[5] = tested on: Staphylococcus aureus; test: Inhibition of biofilm formation in methicillin-resistant Staphylococcus aureus ATCC 43300 at 100 uM incubated for 24 hrs by crystal violet staining based microtiter plate method; assay type: functional
[6] = tested on: CCD-18Co; test: Cytotoxicity against human CCD-18Co cells assessed as reduction in cell viability at 25 uM measured after 1 days by MTT assay relative to control; assay type: cell-based; settings: 24 h, time 1 day

For `Nc1nc(-c2cccc(Br)c2)cc(-c2nc3ccccc3c(=O)[nH]2)n1`, which IC50 [1] is on record?
Its IC50 is 20.7 µM.

And the Activity [2]?
Its Activity is “Toxic”.

And the Activity [3]?
Its Activity is “Toxic”.

What about the inhibition at 100 µM [4] of the same compound?
Its inhibition at 100 µM is under 25%.

What about the inhibition at 100 µM [5] of the same compound?
The inhibition at 100 µM was over 50%.

Which inhibition at 100 µM [4] does the source give for `Nc1nc(-c2ccncc2)cc(-c2nc3ccccc3c(=O)[nH]2)n1` here?
The inhibition at 100 µM was under 25%.

And the inhibition at 100 µM [5]?
The inhibition at 100 µM was under 50%.

For `COc1cc(OC)c(-c2cc(-c3nc4ccccc4c(=O)[nH]3)nc(N)n2)c(OC)c1`, which IC50 [1] is on record?
Its IC50 is 21.2 µM.

What about the Activity [2] of the same compound?
Its Activity is “Non-Toxic”.

What about the Activity [6] of the same compound?
Its Activity is “Non-Toxic”.

And the Activity [3]?
Its Activity is “Non-Toxic”.

And the inhibition at 100 µM [4]?
The inhibition at 100 µM was under 25%.

What about the inhibition at 100 µM [5] of the same compound?
The inhibition at 100 µM was over 50%.

Which IC50 [1] does the source give for `COc1cc(OC)cc(-c2cc(-c3nc4ccccc4c(=O)[nH]3)nc(N)n2)c1` here?
The IC50 was 50.5 µM.

And the inhibition at 100 µM [4]?
Its inhibition at 100 µM is under 25%.

What about the inhibition at 100 µM [5] of the same compound?
The inhibition at 100 µM was over 50%.

Which inhibition at 100 µM [4] does the source give for `Cc1ccc(-c2cc(-c3nc4ccccc4c(=O)[nH]3)nc(N)n2)cc1` here?
The inhibition at 100 µM was under 25%.

Which IC50 [1] does the source give for `Nc1nc(-c2nc3ccccc3c(=O)[nH]2)cc(-c2ccco2)n1` here?
The IC50 was 56.9 µM.

And the inhibition at 100 µM [4]?
The inhibition at 100 µM was under 25%.

What about the inhibition at 100 µM [5] of the same compound?
The inhibition at 100 µM was over 50%.

What does the source list for `Nc1nc(-c2ccc(OCc3ccccc3)cc2)cc(-c2nc3ccccc3c(=O)[nH]2)n1`?
IC50 [1]: 37.3 µM; inhibition at 100 µM [4]: < 25%; inhibition at 100 µM [5]: > 50%

What does the source list for `Nc1nc(-c2nc3ccccc3c(=O)[nH]2)cc(-c2cccs2)n1`?
IC50 [1]: 71 µM; inhibition at 100 µM [4]: < 25%; inhibition at 100 µM [5]: < 50%

`Nc1nc(-c2ccc(Br)cc2)cc(-c2nc3ccccc3c(=O)[nH]2)n1` was tested. Which IC50 [1] did it give?
Its IC50 is 47.3 µM.

What about the inhibition at 100 µM [4] of the same compound?
Its inhibition at 100 µM is under 25%.

What about the inhibition at 100 µM [5] of the same compound?
The inhibition at 100 µM was over 50%.

Which results are given for `Nc1nc(-c2ccc(C(F)(F)F)cc2)cc(-c2nc3ccccc3c(=O)[nH]2)n1`?
IC50 [1]: 86.5 µM; inhibition at 100 µM [4]: < 25%; inhibition at 100 µM [5]: > 50%

How did the inhibition at 100 µM [4] turn out when `COc1cc(-c2cc(-c3nc4ccccc4c(=O)[nH]3)nc(N)n2)cc(OC)c1OC` was run?
Its inhibition at 100 µM is under 25%.

How did the IC50 [1] turn out when `CSc1ccc(-c2cc(-c3nc4ccccc4c(=O)[nH]3)nc(N)n2)cc1` was run?
Its IC50 is 22.4 µM.

And the inhibition at 100 µM [4]?
The inhibition at 100 µM was under 25%.

What about the inhibition at 100 µM [5] of the same compound?
The inhibition at 100 µM was over 50%.

Which IC50 [1] does the source give for `COc1ccc(-c2cc(-c3nc4ccccc4c(=O)[nH]3)nc(N)n2)c(OC)c1` here?
Its IC50 is 38.4 µM.

And the inhibition at 100 µM [4]?
Its inhibition at 100 µM is under 25%.

What about the inhibition at 100 µM [5] of the same compound?
Its inhibition at 100 µM is over 50%.

Which results are given for `Nc1nc(-c2ccccc2)cc(-c2nc3ccccc3c(=O)[nH]2)n1`?
IC50 [1]: 34.4 µM; inhibition at 100 µM [4]: < 25%; inhibition at 100 µM [5]: > 50%

What does the source list for `Nc1nc(-c2ccc(F)cc2)cc(-c2nc3ccccc3c(=O)[nH]2)n1`?
inhibition at 100 µM [4]: < 25%; inhibition at 100 µM [5]: < 50%

Which IC50 [1] does the source give for `Nc1nc(-c2nc3ccccc3c(=O)[nH]2)cc(-c2ccccc2Cl)n1` here?
The IC50 was 56.2 µM.

What about the inhibition at 100 µM [4] of the same compound?
Its inhibition at 100 µM is under 25%.

And the inhibition at 100 µM [5]?
Its inhibition at 100 µM is over 50%.

Which inhibition at 100 µM [4] does the source give for `Nc1nc(-c2cccc(OCc3ccccc3)c2)cc(-c2nc3ccccc3c(=O)[nH]2)n1` here?
Its inhibition at 100 µM is under 25%.

What does the source list for `Nc1nc(-c2ccc(Cl)cc2)cc(-c2nc3ccccc3c(=O)[nH]2)n1`?
inhibition at 100 µM [4]: < 25%; inhibition at 100 µM [5]: < 50%

For `COc1ccc(-c2cc(-c3nc4ccccc4c(=O)[nH]3)nc(N)n2)cc1OC`, which inhibition at 100 µM [4] is on record?
The inhibition at 100 µM was under 25%.

With `COc1cccc(-c2cc(-c3nc4ccccc4c(=O)[nH]3)nc(N)n2)c1` as the compound, how does the IC50 [1] read?
The IC50 was 84.8 µM.

What about the inhibition at 100 µM [4] of the same compound?
Its inhibition at 100 µM is under 25%.

And the inhibition at 100 µM [5]?
Its inhibition at 100 µM is over 50%.

What does the source list for `Nc1nc(-c2nc3ccccc3c(=O)[nH]2)cc(-c2ccc(Cl)cc2Cl)n1`?
IC50 [1]: 42.7 µM; inhibition at 100 µM [4]: < 25%; inhibition at 100 µM [5]: > 50%

For `Nc1nc(-c2nc3ccccc3c(=O)[nH]2)cc(-c2cccc3ccccc23)n1`, which inhibition at 100 µM [4] is on record?
The inhibition at 100 µM was under 25%.
